Ki data for six compounds are collected here from ChEMBL document CHEMBL1148021, “(Arylpiperazinyl)cyclohexylsufonamides: discovery of alpha(1a/1d)-selective adrenergic receptor antagonists for the treatment of Benign Prostatic Hyperplasia/Lower Urinary Tract Symptoms (BPH/LUTS)” (Bioorg Med Chem Lett, 2007).

The target in assay [1] is T1, Alpha-1A adrenergic receptor (Homo sapiens, UniProt P35348).
T1 sequence (P35348 whole entry): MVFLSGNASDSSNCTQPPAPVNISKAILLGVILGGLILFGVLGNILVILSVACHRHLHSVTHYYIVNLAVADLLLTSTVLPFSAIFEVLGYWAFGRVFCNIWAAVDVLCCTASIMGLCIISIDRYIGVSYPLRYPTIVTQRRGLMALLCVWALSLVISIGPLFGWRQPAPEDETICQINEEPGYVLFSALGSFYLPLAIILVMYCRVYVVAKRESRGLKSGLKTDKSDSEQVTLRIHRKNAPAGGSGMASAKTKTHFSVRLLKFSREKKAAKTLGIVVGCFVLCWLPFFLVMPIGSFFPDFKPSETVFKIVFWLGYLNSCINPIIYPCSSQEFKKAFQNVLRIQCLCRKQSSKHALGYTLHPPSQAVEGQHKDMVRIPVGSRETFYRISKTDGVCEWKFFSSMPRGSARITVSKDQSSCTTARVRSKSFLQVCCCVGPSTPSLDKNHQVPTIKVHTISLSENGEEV
Kind of assay: Binding affinity to human cloned adrenergic alpha-1A receptor.

For assay [2], the target named is T2, Alpha-1D adrenergic receptor (Homo sapiens, UniProt P25100).
T2 sequence (P25100 whole entry): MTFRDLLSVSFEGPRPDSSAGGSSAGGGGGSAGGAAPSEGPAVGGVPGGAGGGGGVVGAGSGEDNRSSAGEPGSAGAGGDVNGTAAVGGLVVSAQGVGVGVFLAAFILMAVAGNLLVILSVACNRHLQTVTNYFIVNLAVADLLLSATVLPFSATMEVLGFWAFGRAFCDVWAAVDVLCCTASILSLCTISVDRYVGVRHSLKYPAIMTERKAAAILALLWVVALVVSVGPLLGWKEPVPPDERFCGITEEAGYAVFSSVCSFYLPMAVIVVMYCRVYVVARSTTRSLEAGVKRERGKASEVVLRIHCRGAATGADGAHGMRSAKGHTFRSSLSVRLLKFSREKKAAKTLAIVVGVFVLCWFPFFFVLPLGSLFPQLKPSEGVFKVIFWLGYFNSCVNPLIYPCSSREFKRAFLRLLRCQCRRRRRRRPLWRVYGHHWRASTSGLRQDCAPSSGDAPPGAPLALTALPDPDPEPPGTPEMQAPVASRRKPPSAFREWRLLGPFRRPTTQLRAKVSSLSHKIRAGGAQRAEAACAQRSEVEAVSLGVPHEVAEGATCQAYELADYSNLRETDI
Kind of assay: Binding affinity to human cloned adrenergic Alpha-1D receptor.

In assay [3] the target is T3, Alpha-1B adrenergic receptor (Homo sapiens, UniProt P35368).
T3 sequence (P35368 whole entry): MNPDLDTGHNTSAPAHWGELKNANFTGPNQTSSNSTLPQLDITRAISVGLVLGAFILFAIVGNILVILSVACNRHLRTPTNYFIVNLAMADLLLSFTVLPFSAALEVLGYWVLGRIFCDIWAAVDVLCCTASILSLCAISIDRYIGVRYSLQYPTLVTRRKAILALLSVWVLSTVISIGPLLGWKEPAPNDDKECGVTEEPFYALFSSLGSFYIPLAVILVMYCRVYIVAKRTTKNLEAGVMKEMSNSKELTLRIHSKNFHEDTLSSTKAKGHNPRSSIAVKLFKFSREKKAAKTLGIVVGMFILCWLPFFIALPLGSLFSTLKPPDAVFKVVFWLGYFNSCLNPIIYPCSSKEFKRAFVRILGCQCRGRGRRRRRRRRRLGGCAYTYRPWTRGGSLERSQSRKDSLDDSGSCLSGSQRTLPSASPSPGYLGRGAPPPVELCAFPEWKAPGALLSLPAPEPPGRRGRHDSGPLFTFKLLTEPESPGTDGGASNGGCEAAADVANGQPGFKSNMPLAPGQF
Kind of assay: Binding affinity to human cloned adrenergic alpha-1B receptor.

The target of the next assay is D(2) dopamine receptor (Homo sapiens, UniProt P14416). Kind of assay: Binding affinity to human dopamine D2 receptor.

pKi: −log10 of the molar value.

Sequence of D(2) dopamine receptor (P14416 whole entry): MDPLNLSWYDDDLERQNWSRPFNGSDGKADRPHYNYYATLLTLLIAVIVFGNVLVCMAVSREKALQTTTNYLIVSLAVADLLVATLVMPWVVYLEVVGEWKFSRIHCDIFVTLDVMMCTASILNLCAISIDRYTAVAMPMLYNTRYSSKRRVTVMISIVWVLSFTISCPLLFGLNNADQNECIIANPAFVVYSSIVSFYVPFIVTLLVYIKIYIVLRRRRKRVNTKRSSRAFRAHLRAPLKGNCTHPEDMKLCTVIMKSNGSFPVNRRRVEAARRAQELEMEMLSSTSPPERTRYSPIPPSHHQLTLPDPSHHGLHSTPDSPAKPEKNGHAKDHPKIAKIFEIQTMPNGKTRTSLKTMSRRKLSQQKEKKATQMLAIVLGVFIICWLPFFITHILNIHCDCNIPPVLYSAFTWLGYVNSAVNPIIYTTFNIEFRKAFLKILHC

In general, pKi refers to the Ki on a negative log10 scale, so that one unit is a factor of ten. A high value points to a low Ki. As for `COc1ccc(S(=O)(=O)N[C@H]2CC[C@@H](N3CCN(c4ccccc4OCC4CC4)CC3)CC2)cc1OC`, the negative logarithm of the Ki (pKi) in assay [1] is 6.72; in assay [2], 7.19; in assay [3] it was 6.44; on D(2) dopamine receptor it was 6.91.
For the compound `COc1ccc(Cl)cc1S(=O)(=O)N[C@H]1CC[C@@H](N2CCN(c3ccccc3OCC3CC3)CC2)CC1`, the negative logarithm of the Ki (pKi) in assay [1] was 7.72; in assay [2] it was 7.32; in assay [3], 6.22; on D(2) dopamine receptor it was 6.23.
With `O=S(=O)(N[C@H]1CC[C@@H](N2CCN(c3ccccc3OCC3CC3)CC2)CC1)c1cc(Cl)ccc1F`, the pKi in assay [1] was 7.44; in assay [2], 7.36; in assay [3], 6.02; on D(2) dopamine receptor, 6.37.
On the same counts, the results for `COc1ccc(C)cc1S(=O)(=O)N[C@H]1CC[C@@H](N2CCN(c3ccccc3OC(C)C)CC2)CC1` are 7.74, 8.15, 6.79 and 6.96.
On the same counts, the results for `CC(C)Oc1ccccc1N1CCN([C@H]2CC[C@@H](NS(=O)(=O)c3cc(Cl)ccc3F)CC2)CC1` are 7.35, 7.82, 5.73 and 6.45.
In the case of `COc1ccc(Cl)cc1S(=O)(=O)N[C@H]1CC[C@@H](N2CCN(c3ccccc3OC(C)C)CC2)CC1` (stereo in doubt; form 2), the negative logarithm of the Ki (pKi) was 7.96 in assay [1], 6.40 in assay [3] and 6.59 at D(2) dopamine receptor.
